What was measured:
immune cells = conditions: cited from earlier work; for in vitro effective concentration on immune cells: Table 1
[1] = Table 1; cited from earlier work
[2] = test system: DRGs, motor neurons, and Schwann cells; conditions: 72 h; for Measures in vitro tolerated concentrations on PN cells: rat
Experimental: It is contemplated that delivery of immunosuppressive agents function within a favorable therapeutic window. PNs are comprised of three major nervous system cell types, motor neurons, sensory neurons, and Schwann cells. […] FIG. 1B illustrates data regarding the toxicity of tacrolimus to DRGs, motor neurons, and Schwann cells. FIG. 1C illustrates data regarding the toxicity of prednisolone to DRGs, motor neurons, and Schwann cells.
Cells (DRGs, motor neurons, and Schwann cells) were cultured for 72 hours in various concentration of the immunosuppressive drugs and viability was evaluated using the Alamar blue viability assay. ISV's were diluted into media using a maximum of 1% dimethylsulfoxide (DMSO).
FIG. 2B illustrates data regarding the viability of DRGs, motor neurons, and Schwann cells cultured in about 10 μM tracrolimus with differing concentrations of prednisolone.

| SMILES | in vitro effective concentration on immune cells (immune cells) | effective dose for inhibiting activation and proliferation of immune cells (immune cells) | Effective clinical plasma concentration [1] | tolerated by the cells at doses up to [2] | Measures in vitro tolerated concentrations on PN cells [2] |
| --- | --- | --- | --- | --- | --- |
| C[C@]12C=CC(=O)C=C1CC[C@@H]1[C@@H]2[C@@H](O)C[C@@]2(C)[C@H]1CC[C@]2(O)C(=O)CO [Prednisolone, prednisolone] | 240 nM | greater than 240 μM | 277 nM | up to 200 μM | 200 µM |
| C=CC[C@@H]1/C=C(\C)C[C@H](C)C[C@H](OC)[C@H]2O[C@@](O)(C(=O)C(=O)N3CCCC[C@H]3C(=O)O[C@H](/C(C)=C/[C@@H]3CC[C@@H](O)[C@H](OC)C3)[C@H](C)[C@@H](O)CC1=O)[C@H](C)C[C@@H]2OC [Tacrolimus, tacrolimus] | 0.5 to 1.0 nM | 50 to 100 µM | 21 nM | 10 to 25 µM | 10 to 25 µM |

From US20200139012A1, “METHODS AND MATERIALS FOR IMMUNOMODULATION OF TISSUE GRAFTS” (UNIVERSITY OF WYOMING, priority 2018, published 2020)
